Test results reported in patent publication US11840528B2 (Hoffmann-La Roche Inc., priority 2018, dated 2023).

How the values were obtained:
h-GABA-A α5β3γ2 [1] = target: T1, h-GABA-A α5β3γ2 (Homo sapiens, UniProt P18507+P31644); assay: Two-electrode voltage clamp electrophysiology in Xenopus laevis oocytes expressing GABAA receptors, modulation of GABA EC20 current; type: cell-based; design: host or cells: Xenopus laevis oocytes micro-injected with RNA transcripts of the subunits; details: Table 1; for Efficacy (GABA) %: % modulation of GABA EC20 = 100*(Fold increase-1); for Fold increase h-GABA-A α5β3γ2 oocyte: test compound at approx. 30 fold its Ki, GABA at EC20
Description: Xenopus laevis oocytes at maturation stages V-VI were used for the expression of cloned mRNA encoding GABAA receptor subunits. Oocytes ready for RNA micro-injection were bought from Ecocyte, Castrop-Rauxel, Germany and stored in modified Barth's medium (composition in mM: NaCl 88, KCl 1, NaHCO32.4, HEPES 10, MgSO4 0.82, CaNO3 0.33, CaCl2 0.33, pH=7.5) at 20° C. until the experiment.
Oocytes were plated in 96-well plates to be used in an automated instrument (Robo-ocyte, MultiChannelSystems, Reutlingen, Germany) for microinjection and electrophysiological recordings. Approximately 50 nl of an aqueous solution containing the RNA transcripts for the subunits of the desired GABAA receptor was injected into each oocyte. RNA concentrations ranged between 0.3 and 16 ng/μl/subunit and were adjusted in pilot experiments to obtain GABA responses of a suitable size and a maximal effect of the reference modulator, Beta-CCM (β-CCM), a betacarboline negative allosteric modulator (NAM) at the GABAA receptor benzodiazepine (BZD) binding site or Midazolam, a benzodiazepine positive allosteric modulator (PAM) at the GABAA receptor benzodiazepine (BZD) binding site. The concentration of the γ2 subunit encoding RNA usually was 5- to 10-fold higher than the RNAs encoding the other subunits. Oocytes were kept in modified Barth's medium (composition in mM: NaCl 88, KCl 1, NaHCO3 4, HEPES 10, MgSO4 0.82, CaNO3 0.33, CaCl2) 0.33, pH=7.5) at 20° C. until the experiment.
Electrophysiological experiments were performed on days 3 to 5 after the micro-injection of mRNA. During the experiment the oocytes were constantly superfused by a solution containing (in mM) NaCl 90, KCl 1, HEPES 5, MgCl2 1, CaCl2) 1 (pH 7.4). Oocytes were impaled by two glass microelectrodes (resistance: 0.4 MΩ) which were filled with a solution containing KCl 1M+K-acetate 1.5 M and voltage-clamped to −80 mV. The recordings were performed at room temperature using the Roboocyte two-electrode voltage clamp system (Multichannelsystem). After an initial equilibration period of 1.5 min GABA was added for 1.5 min at a concentration evoking approximately 20% of a maximal current response (EC20). After another rest interval of 2.5 min GABA was again added evoking a response of similar amplitude and shape. 0.5 min after the onset of this second GABA application the test compound, at a concentration corresponding to approximatively 30 fold its Ki, was added while GABA was still present. Current traces were recorded at a digitization rate of 10 Hz during and shortly before and after the GABA application.
Each compound and concentration was tested on at least 3 oocytes. Different oocytes were used for different compound concentrations. β-CCM, a negative allosteric modulator, or Midazolam, a positive allosteric modulators, were tested on a few (3-6) oocytes on each 96-well plate for a positive control at a maximally effective. β-CCM inhibited the GABA-evoked current by approximatively 50% (Fold increase ˜0.5), while Midazolam potentiated the GABA-induced current by approximatively 150% (Fold increase ˜2.5).
For the analysis, the digitized current traces of the first and second GABA response were superimposed and, if necessary, rescaled to equal maximal amplitudes. The ratio between the two responses during the time interval of test compound application was calculated point by point. The extremum of the resulting “ratio trace” was taken as the efficacy (“Fold increase”) of the compound expressed as “% modulation of GABA EC20” (100*(Fold increase-1)).

h-GABA-A α5β3γ2 [2] = target: T1, h-GABA-A α5β3γ2; assay: [3H]flumazenil competition binding assay, membranes of HEK293 cells expressing GABAA receptors; details: displacement of [3H]-Flumazenil 0.5 nM, HEK293 cells expressing human receptors, mean of two determinations; Table 1
Description: The affinity of compounds at GABAA receptor subtypes was measured by competition for [3H]flumazenil (85 Ci/mmol; Roche) binding to HEK293 cells expressing rat (stably transfected) or human (transiently transfected) receptors of composition α1β3γ2, α2β3γ2, α3β3γ2 and α5β3γ2.
Cell pellets were suspended in Krebs-tris buffer (4.8 mM KCl, 1.2 mM CaCl2), 1.2 mM MgCl2, 120 mM NaCl, 15 mM Tris; pH 7.5; binding assay buffer), homogenized by polytron for ca. 20 sec on ice and centrifuged for 60 min at 4° C. (50000 g; Sorvall, rotor: SM24=20000 rpm). The cell pellets were resuspended in Krebs-tris buffer and homogenized by polytron for ca. 15 sec on ice. Protein was measured (Bradford method, Bio-Rad) and aliquots of 1 mL were prepared and stored at −80° C.
Assays were incubated to equilibrium for 1 hour at 4° C. and harvested onto GF/C uni-filters (Packard) by filtration using a Packard harvester and washing with ice-cold wash buffer (50 mM Tris; pH 7.5). After drying, filter-retained radioactivity was detected by liquid scintillation counting. Ki values were calculated using Excel-Fit (Microsoft) and are the means of two determinations.

Row | Efficacy (GABA) % (h-GABA-A α5β3γ2 [1]) | Fold increase h-GABA-A α5β3γ2 oocyte (h-GABA-A α5β3γ2 [1]) | Ki (h-GABA-A α5β3γ2 [2]) | Compound
1 | 105% | 2.05 | 5.9 nM | Cc1onc(-c2ccc(C(F)(F)F)nn2)c1Cn1ncc(N2CC3(CC[C@@H](F)CO3)C2)cc1=O [Example 334, (R)-5-(7-fluoro-5-oxa-2-azaspiro[3.5]nonan-2-yl)-2-((5-methyl-3-(6-(trifluoromethyl)pyridazin-3-yl)isoxazol-4-yl)methyl)pyridazin-3(2H)-one]
2 | 120% | 2.2 | 11.1 nM | Cc1ccc(-c2noc(C)c2Cn2ncc(N3CC(Oc4ccccc4F)C3)cc2=O)cn1 [Example 128, 5-[3-(2-fluorophenoxy)azetidin-1-yl]-2-[[5-methyl-3-(6-methyl-3-pyridyl)isoxazol-4-yl]methyl]pyridazin-3-one]
3 | 89% | 1.89 | 85 nM | COc1ccc(-c2cnn(Cc3c(-c4ccc(C)nc4)noc3C)c(=O)c2)nc1 [Example 84, 5-(5-methoxypyridin-2-yl)-2-((5-methyl-3-(6-methylpyridin-3-yl)isoxazol-4-yl)methyl)pyridazin-3(2H)-one]
4 | 250% | 3.5 | 43.3 nM | Cc1onc(-c2ccc(C(F)(F)F)nc2)c1Cn1ncc(N2CCN(C(=O)C3(C)CC3)CC2)cc1=O [Example 40, 5-[4-(1-methylcyclopropanecarbonyl)piperazin-1-yl]-2-[[5-methyl-3-[6-(trifluoromethyl)-3-pyridyl]isoxazol-4-yl]methyl]pyridazin-3-one]
5 | 126% | 2.26 | 34.3 nM | Cc1onc(-c2ccc(Cl)nc2)c1Cn1ncc(N2CCC3(CC2)COC3)cc1=O [Example 258, 2-((3-(6-chloropyridin-3-yl)-5-methylisoxazol-4-yl)methyl)-5-(2-oxa-7-azaspiro[3.5]nonan-7-yl)pyridazin-3(2H)-one]
6 | 104% | 2.04 | 3.6 nM | Cc1ccc(-c2noc(C)c2Cn2ncc(N3CCNCC3)cc2=O)cn1 [Example 75, 2-[[5-methyl-3-(6-methyl-3-pyridyl)isoxazol-4-yl]methyl]-5-piperazin-1-yl-pyridazin-3-one]
7 | 180% | 2.8 | 28.2 nM | Cc1ccc(-c2noc(C)c2Cn2ncc(-c3cc(F)cnc3Cl)cc2=O)cn1 [Example 189, 5-(2-chloro-5-fluoro-3-pyridyl)-2-((5-methyl-3-(6-methyl-3-pyridyl)isoxazol-4-yl)methyl)pyridazin-3-one]
8 | 100% | 2 | 2.5 nM | Cc1ccc(-c2noc(C)c2Cn2ncc(N3CC(OC4(C)CC4)C3)cc2=O)nn1 [Example 305, 5-[3-(1-methylcyclopropoxy)azetidin-1-yl]-2-[[5-methyl-3-(6-methylpyridazin-3-yl)isoxazol-4-yl]methyl]pyridazin-3-one]
9 | 222% | 3.22 | 21.9 nM | Cc1ccc(-c2noc(C)c2Cn2ncc(N3CCN(C(=O)C4(C)CC4)CC3)cc2=O)cn1 [Example 10, 2-((5-methyl-3-(6-methylpyridin-3-yl)isoxazol-4-yl)methyl)-5-(4-(1-methylcyclopropanecarbonyl)piperazin-1-yl)pyridazin-3(2H)-one]
10 | 131% | 2.31 | 1.8 nM | CCO[C@H]1CN(c2cnn(Cc3c(-c4ccc(C)nc4)noc3C)c(=O)c2)[C@H]1C [Example 198, 5-[(2S,3S)-3-ethoxy-2-methyl-azetidin-1-yl]-2-[[5-methyl-3-(6-methyl-3-pyridyl)isoxazol-4-yl]methyl]pyridazin-3-one]
11 | 210% | 3.1 | 8.6 nM | COc1ncc(-c2cnn(Cc3c(-c4ccc(C)nc4)noc3C)c(=O)c2)cc1Cl [Example 188, 5-(5-chloro-6-methoxypyridin-3-yl)-2-((5-methyl-3-(6-methylpyridin-3-yl)isoxazol-4-yl)methyl)pyridazin-3(2H)-one]
